{
  "source": "patent US6358885B1",
  "about": "“Substituted phenylheterocyclic herbicides” (Mississippi State University, priority 1992, dated 2002)",
  "assay_in_all_cases": "Test F preemergence/postemergence greenhouse plant response rating 0 to 100",
  "key": {"chickweed": {"tested_on": "chickweed", "assay_type": "in vivo, Stellaria media", "settings": "POSTEMERGENCE, 0 to 100 scale", "text": "(§1) Compounds evaluated in this test were formulated in a non-phytoxic solvent and applied to the soil surface before plant seedlings emerged (preemergence application) and to plants that were in the one-to-four leaf stage (postemergence application). A sandy loam soil was used for the preemergence test while a mixture of sandy loam soil and greenhouse potting mix in a 60:40 ratio was used for the postemergence test. Test compounds were applied within approximately one day after planting seeds for the preemergence test. Plantings of these crops and weed species were adjusted to produce plants of appropriate size for the postemergence test. All plant species were grown using normal greenhouse practices. Crop and weed species include winter barley (Hordeum vulgare cv. ‘Igri’), blackgrass (Alopecurus myosuroides), chickweed (Stellaria media), downy brome (Bromus tectorum), field violet (Viola arvensis), galium (Galium aparine), green foxtail (Setaria viridis), kochia (Kochia scoparia), lambsquarters (Chenopodium album), speedwell (Veronica persica), rape (Brassica napus), ryegrass (Lolium multiflorum), sugar beet (Beta vulgaris cv. ‘USl’), sunflower (Helianthus annuus cv. ‘Russian Giant’), spring wheat (Triticum aestivum cv. ‘ERA’), winter wheat (Triticum aestivum cv. ‘Talent’), wild buckwheat (Polygonum convolvulus), wild mustard (Sinapis arvensis), wild oat (Avena fatua), and wild radish (Raphanus raphanistrum). Blackgrass, galium and wild oat were treated at two growth stages. […] Treated plants and untreated controls were maintained in a greenhouse for approximately 21 to 28 days, after which all treated plants were compared to untreated controls and visually evaluated. […] A dash response (-) means no test result."}, "spring wheat": {"tested_on": "spring wheat", "assay_type": "in vivo, Triticum aestivum cv. ‘ERA’", "settings": "POSTEMERGENCE, 0 to 100 scale", "text": "as §1"}, "winter barley": {"tested_on": "winter barley", "assay_type": "in vivo, Hordeum vulgare cv. ‘Igri’", "settings": "POSTEMERGENCE, 0 to 100 scale", "text": "as §1"}, "kochia": {"tested_on": "kochia", "assay_type": "in vivo, Kochia scoparia", "settings": "POSTEMERGENCE, 0 to 100 scale", "text": "as §1"}, "downy brome": {"tested_on": "downy brome", "assay_type": "in vivo, Bromus tectorum", "settings": "POSTEMERGENCE, 0 to 100 scale", "text": "as §1"}, "winter wheat": {"tested_on": "winter wheat", "assay_type": "in vivo, Triticum aestivum cv. ‘Talent’", "settings": "POSTEMERGENCE, 0 to 100 scale", "text": "as §1"}, "wild oat": {"tested_on": "wild oat", "assay_type": "in vivo, Avena fatua", "settings": "POSTEMERGENCE, 0 to 100 scale; for Wild oat (1) plant response rating: stage (1) two to three leaves; for Wild oat (2) plant response rating: stage (2) approximately four leaves or initial tillering", "text": "as §1"}, "wild radish": {"tested_on": "wild radish", "assay_type": "in vivo, Raphanus raphanistrum", "settings": "POSTEMERGENCE, 0 to 100 scale", "text": "as §1"}, "galium": {"tested_on": "galium", "assay_type": "in vivo, Galium aparine", "settings": "POSTEMERGENCE, 0 to 100 scale; for Galium (1) plant response rating: stage (1) two to three leaves; for Galium (2) plant response rating: stage (2) approximately four leaves or initial tillering", "text": "as §1"}, "speedwell": {"tested_on": "speedwell", "assay_type": "in vivo, Veronica persica", "settings": "POSTEMERGENCE, 0 to 100 scale", "text": "as §1"}, "wild mustard": {"tested_on": "wild mustard", "assay_type": "in vivo, Sinapis arvensis", "settings": "POSTEMERGENCE, 0 to 100 scale", "text": "as §1"}, "lambsquarters": {"tested_on": "lambsquarters", "assay_type": "in vivo, Chenopodium album", "settings": "POSTEMERGENCE, 0 to 100 scale", "text": "as §1"}, "blackgrass": {"tested_on": "blackgrass", "assay_type": "in vivo, Alopecurus myosuroides", "settings": "POSTEMERGENCE, 0 to 100 scale; for Blackgrass (1) plant response rating: stage (1) two to three leaves; for Blackgrass (2) plant response rating: stage (2) approximately four leaves or initial tillering", "text": "as §1"}, "wild buckwheat": {"tested_on": "wild buckwheat", "assay_type": "in vivo, Polygonum convolvulus", "settings": "POSTEMERGENCE, 0 to 100 scale", "text": "as §1"}},
  "data": [
    {"smiles": "CCOC(=O)COc1cc(-c2nn3c(c2Cl)CCCC3)c(F)cc1Cl", "note": "[Compound 42]", "values": [
      {"measurement": "Chickweed plant response rating", "setting": "chickweed; Rate 2 g/ha", "value": 0},
      {"measurement": "Chickweed plant response rating", "setting": "chickweed; Rate 4 g/ha", "value": 0},
      {"measurement": "Chickweed plant response rating", "setting": "chickweed; Rate 8 g/ha", "value": 0},
      {"measurement": "Chickweed plant response rating", "setting": "chickweed; Rate 16 g/ha", "value": 0},
      {"measurement": "Chickweed plant response rating", "setting": "chickweed; Rate 32 g/ha", "value": 0},
      {"measurement": "Wheat (Spring) plant response rating", "setting": "spring wheat; Rate 2 g/ha", "value": 0},
      {"measurement": "Wheat (Spring) plant response rating", "setting": "spring wheat; Rate 4 g/ha", "value": 0},
      {"measurement": "Wheat (Spring) plant response rating", "setting": "spring wheat; Rate 8 g/ha", "value": 0},
      {"measurement": "Wheat (Spring) plant response rating", "setting": "spring wheat; Rate 16 g/ha", "value": 10},
      {"measurement": "Wheat (Spring) plant response rating", "setting": "spring wheat; Rate 32 g/ha", "value": 10},
      {"measurement": "Winter Barley plant response rating", "setting": "winter barley; Rate 2 g/ha", "value": 10},
      {"measurement": "Winter Barley plant response rating", "setting": "winter barley; Rate 4 g/ha", "value": 10},
      {"measurement": "Winter Barley plant response rating", "setting": "winter barley; Rate 8 g/ha", "value": 10},
      {"measurement": "Winter Barley plant response rating", "setting": "winter barley; Rate 16 g/ha", "value": 10},
      {"measurement": "Winter Barley plant response rating", "setting": "winter barley; Rate 32 g/ha", "value": 10},
      {"measurement": "Kochia plant response rating", "setting": "kochia; Rate 2 g/ha", "value": 75},
      {"measurement": "Kochia plant response rating", "setting": "kochia; Rate 4 g/ha", "value": 80},
      {"measurement": "Kochia plant response rating", "setting": "kochia; Rate 8 g/ha", "value": 80},
      {"measurement": "Kochia plant response rating", "setting": "kochia; Rate 16 g/ha", "value": 100},
      {"measurement": "Kochia plant response rating", "setting": "kochia; Rate 32 g/ha", "value": 100},
      {"measurement": "Downy brome plant response rating", "setting": "downy brome; Rate 2 g/ha", "value": 0},
      {"measurement": "Downy brome plant response rating", "setting": "downy brome; Rate 4 g/ha", "value": 0},
      {"measurement": "Downy brome plant response rating", "setting": "downy brome; Rate 8 g/ha", "value": 0},
      {"measurement": "Downy brome plant response rating", "setting": "downy brome; Rate 16 g/ha", "value": 0},
      {"measurement": "Downy brome plant response rating", "setting": "downy brome; Rate 32 g/ha", "value": 0},
      {"measurement": "Wheat (Winter) plant response rating", "setting": "winter wheat; Rate 2 g/ha", "value": 0},
      {"measurement": "Wheat (Winter) plant response rating", "setting": "winter wheat; Rate 4 g/ha", "value": 0},
      {"measurement": "Wheat (Winter) plant response rating", "setting": "winter wheat; Rate 8 g/ha", "value": 10},
      {"measurement": "Wheat (Winter) plant response rating", "setting": "winter wheat; Rate 16 g/ha", "value": 10},
      {"measurement": "Wheat (Winter) plant response rating", "setting": "winter wheat; Rate 32 g/ha", "value": 10},
      {"measurement": "Wild oat (1) plant response rating", "setting": "wild oat; Rate 2 g/ha", "value": 0},
      {"measurement": "Wild oat (2) plant response rating", "setting": "wild oat; Rate 2 g/ha", "value": 0},
      {"measurement": "Wild oat (1) plant response rating", "setting": "wild oat; Rate 4 g/ha", "value": 0},
      {"measurement": "Wild oat (2) plant response rating", "setting": "wild oat; Rate 4 g/ha", "value": 0},
      {"measurement": "Wild oat (1) plant response rating", "setting": "wild oat; Rate 8 g/ha", "value": 0},
      {"measurement": "Wild oat (2) plant response rating", "setting": "wild oat; Rate 8 g/ha", "value": 0},
      {"measurement": "Wild oat (1) plant response rating", "setting": "wild oat; Rate 16 g/ha", "value": 0},
      {"measurement": "Wild oat (2) plant response rating", "setting": "wild oat; Rate 16 g/ha", "value": 0},
      {"measurement": "Wild oat (1) plant response rating", "setting": "wild oat; Rate 32 g/ha", "value": 10},
      {"measurement": "Wild oat (2) plant response rating", "setting": "wild oat; Rate 32 g/ha", "value": 10},
      {"measurement": "Wild radish plant response rating", "setting": "wild radish; Rate 2 g/ha", "value": 0},
      {"measurement": "Wild radish plant response rating", "setting": "wild radish; Rate 4 g/ha", "value": 0},
      {"measurement": "Wild radish plant response rating", "setting": "wild radish; Rate 8 g/ha", "value": 10},
      {"measurement": "Wild radish plant response rating", "setting": "wild radish; Rate 16 g/ha", "value": 20},
      {"measurement": "Wild radish plant response rating", "setting": "wild radish; Rate 32 g/ha", "value": 20},
      {"measurement": "Galium (1) plant response rating", "setting": "galium; Rate 2 g/ha", "value": 0},
      {"measurement": "Galium (2) plant response rating", "setting": "galium; Rate 2 g/ha", "value": 0},
      {"measurement": "Galium (1) plant response rating", "setting": "galium; Rate 4 g/ha", "value": 0},
      {"measurement": "Galium (2) plant response rating", "setting": "galium; Rate 4 g/ha", "value": 0},
      {"measurement": "Galium (1) plant response rating", "setting": "galium; Rate 8 g/ha", "value": 40},
      {"measurement": "Galium (2) plant response rating", "setting": "galium; Rate 8 g/ha", "value": 30},
      {"measurement": "Galium (1) plant response rating", "setting": "galium; Rate 16 g/ha", "value": 40},
      {"measurement": "Galium (2) plant response rating", "setting": "galium; Rate 16 g/ha", "value": 60},
      {"measurement": "Galium (1) plant response rating", "setting": "galium; Rate 32 g/ha", "value": 60},
      {"measurement": "Galium (2) plant response rating", "setting": "galium; Rate 32 g/ha", "value": 60},
      {"measurement": "Persn Speedwell plant response rating", "setting": "speedwell; Rate 2 g/ha", "value": 100},
      {"measurement": "Persn Speedwell plant response rating", "setting": "speedwell; Rate 4 g/ha", "value": 100},
      {"measurement": "Persn Speedwell plant response rating", "setting": "speedwell; Rate 8 g/ha", "value": 100},
      {"measurement": "Persn Speedwell plant response rating", "setting": "speedwell; Rate 16 g/ha", "value": 100},
      {"measurement": "Persn Speedwell plant response rating", "setting": "speedwell; Rate 32 g/ha", "value": 100},
      {"measurement": "Wild mustard plant response rating", "setting": "wild mustard; Rate 2 g/ha", "value": 40},
      {"measurement": "Wild mustard plant response rating", "setting": "wild mustard; Rate 4 g/ha", "value": 100},
      {"measurement": "Wild mustard plant response rating", "setting": "wild mustard; Rate 16 g/ha", "value": 100},
      {"measurement": "Wild mustard plant response rating", "setting": "wild mustard; Rate 32 g/ha", "value": 100},
      {"measurement": "Lambsquarters plant response rating", "setting": "lambsquarters; Rate 2 g/ha", "value": 55},
      {"measurement": "Lambsquarters plant response rating", "setting": "lambsquarters; Rate 4 g/ha", "value": 60},
      {"measurement": "Lambsquarters plant response rating", "setting": "lambsquarters; Rate 8 g/ha", "value": 60},
      {"measurement": "Lambsquarters plant response rating", "setting": "lambsquarters; Rate 16 g/ha", "value": 100},
      {"measurement": "Lambsquarters plant response rating", "setting": "lambsquarters; Rate 32 g/ha", "value": 100},
      {"measurement": "Blackgrass (1) plant response rating", "setting": "blackgrass; Rate 2 g/ha", "value": 0},
      {"measurement": "Blackgrass (2) plant response rating", "setting": "blackgrass; Rate 2 g/ha", "value": 0},
      {"measurement": "Blackgrass (1) plant response rating", "setting": "blackgrass; Rate 4 g/ha", "value": 0},
      {"measurement": "Blackgrass (2) plant response rating", "setting": "blackgrass; Rate 4 g/ha", "value": 0},
      {"measurement": "Blackgrass (1) plant response rating", "setting": "blackgrass; Rate 8 g/ha", "value": 0},
      {"measurement": "Blackgrass (2) plant response rating", "setting": "blackgrass; Rate 8 g/ha", "value": 0},
      {"measurement": "Blackgrass (1) plant response rating", "setting": "blackgrass; Rate 16 g/ha", "value": 0},
      {"measurement": "Blackgrass (2) plant response rating", "setting": "blackgrass; Rate 16 g/ha", "value": 0},
      {"measurement": "Blackgrass (1) plant response rating", "setting": "blackgrass; Rate 32 g/ha", "value": 0},
      {"measurement": "Blackgrass (2) plant response rating", "setting": "blackgrass; Rate 32 g/ha", "value": 0},
      {"measurement": "Wild buckwheat plant response rating", "setting": "wild buckwheat; Rate 2 g/ha", "value": 60},
      {"measurement": "Wild buckwheat plant response rating", "setting": "wild buckwheat; Rate 4 g/ha", "value": 60},
      {"measurement": "Wild buckwheat plant response rating", "setting": "wild buckwheat; Rate 8 g/ha", "value": 100},
      {"measurement": "Wild buckwheat plant response rating", "setting": "wild buckwheat; Rate 16 g/ha", "value": 100}
    ]}
  ]
}
